Assay results reported in BindingDB's records for patent WO2025049746 (Eikon Therapeutics, 2025).

Key:
[1] = molecular target: T1, Bifunctional 3'-5' exonuclease/ATP-dependent helicase WRN [480-1251] (UniProt Q14191); experiment: Biochemical Activity Assays
T1 construct: 480-1251

[2] = molecular target: Bifunctional 3'-5' exonuclease/ATP-dependent helicase WRN (Homo sapiens, UniProt Q14191); experiment: ADP-Glo Kinase Assay
Method: ATPase activity was measured using the ADP-Glo Kinase Assay following the manufacturers recommended protocol.

Chain of Bifunctional 3'-5' exonuclease/ATP-dependent helicase WRN (Q14191 whole entry): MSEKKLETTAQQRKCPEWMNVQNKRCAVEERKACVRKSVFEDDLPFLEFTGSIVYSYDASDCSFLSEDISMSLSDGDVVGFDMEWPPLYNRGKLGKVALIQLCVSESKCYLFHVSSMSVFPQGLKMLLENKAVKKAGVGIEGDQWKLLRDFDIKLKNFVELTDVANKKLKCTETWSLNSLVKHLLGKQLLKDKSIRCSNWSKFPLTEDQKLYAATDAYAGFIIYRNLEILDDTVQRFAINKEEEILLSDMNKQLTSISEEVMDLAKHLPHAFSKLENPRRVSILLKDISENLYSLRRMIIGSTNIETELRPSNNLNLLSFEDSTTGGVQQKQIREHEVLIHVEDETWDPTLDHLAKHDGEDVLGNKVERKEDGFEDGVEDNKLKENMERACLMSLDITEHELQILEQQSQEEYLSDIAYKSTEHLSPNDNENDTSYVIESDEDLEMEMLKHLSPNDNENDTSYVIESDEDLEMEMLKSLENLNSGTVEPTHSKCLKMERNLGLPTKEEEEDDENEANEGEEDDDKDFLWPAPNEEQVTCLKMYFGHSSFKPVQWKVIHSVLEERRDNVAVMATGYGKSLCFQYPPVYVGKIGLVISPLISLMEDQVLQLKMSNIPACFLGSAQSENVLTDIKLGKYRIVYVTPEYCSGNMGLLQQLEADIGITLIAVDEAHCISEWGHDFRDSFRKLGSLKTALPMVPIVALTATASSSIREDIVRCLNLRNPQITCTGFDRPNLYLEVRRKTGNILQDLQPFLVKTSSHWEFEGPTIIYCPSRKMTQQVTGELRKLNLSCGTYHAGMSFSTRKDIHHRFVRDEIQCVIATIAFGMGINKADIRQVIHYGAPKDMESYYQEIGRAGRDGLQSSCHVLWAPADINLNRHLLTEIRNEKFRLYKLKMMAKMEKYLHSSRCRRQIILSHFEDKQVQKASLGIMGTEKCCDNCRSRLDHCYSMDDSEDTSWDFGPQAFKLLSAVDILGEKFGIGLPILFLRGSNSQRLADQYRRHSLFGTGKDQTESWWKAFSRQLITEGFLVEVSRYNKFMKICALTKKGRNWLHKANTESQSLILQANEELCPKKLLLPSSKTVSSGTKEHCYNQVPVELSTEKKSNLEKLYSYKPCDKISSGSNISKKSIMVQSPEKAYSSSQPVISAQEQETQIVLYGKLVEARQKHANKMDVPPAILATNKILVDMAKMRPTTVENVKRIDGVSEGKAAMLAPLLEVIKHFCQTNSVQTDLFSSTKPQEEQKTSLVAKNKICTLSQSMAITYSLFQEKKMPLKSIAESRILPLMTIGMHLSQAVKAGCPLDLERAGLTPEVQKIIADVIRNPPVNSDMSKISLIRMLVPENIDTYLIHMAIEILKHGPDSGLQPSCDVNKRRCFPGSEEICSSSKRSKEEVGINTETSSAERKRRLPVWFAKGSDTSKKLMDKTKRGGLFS
T1 sequence (Q14191 480-1251): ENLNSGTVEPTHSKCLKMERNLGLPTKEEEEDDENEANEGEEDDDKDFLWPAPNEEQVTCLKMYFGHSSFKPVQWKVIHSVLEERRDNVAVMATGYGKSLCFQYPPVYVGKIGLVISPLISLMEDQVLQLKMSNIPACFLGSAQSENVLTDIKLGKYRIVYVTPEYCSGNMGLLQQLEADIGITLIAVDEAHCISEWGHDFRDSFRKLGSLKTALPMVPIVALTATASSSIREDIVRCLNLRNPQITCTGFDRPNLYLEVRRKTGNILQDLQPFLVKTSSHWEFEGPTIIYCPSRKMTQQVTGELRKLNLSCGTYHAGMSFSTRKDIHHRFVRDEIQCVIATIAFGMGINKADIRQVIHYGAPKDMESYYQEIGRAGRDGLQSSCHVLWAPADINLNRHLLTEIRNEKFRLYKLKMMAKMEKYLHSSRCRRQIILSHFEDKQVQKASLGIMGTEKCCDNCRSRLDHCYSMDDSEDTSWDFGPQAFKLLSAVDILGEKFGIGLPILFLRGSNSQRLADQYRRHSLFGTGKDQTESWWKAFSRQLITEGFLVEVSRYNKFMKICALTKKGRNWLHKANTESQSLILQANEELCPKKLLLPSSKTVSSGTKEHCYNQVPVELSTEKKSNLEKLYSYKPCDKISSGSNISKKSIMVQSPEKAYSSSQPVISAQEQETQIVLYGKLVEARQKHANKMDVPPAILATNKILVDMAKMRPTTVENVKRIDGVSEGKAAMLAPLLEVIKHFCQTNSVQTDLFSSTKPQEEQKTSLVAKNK

| Structure (SMILES) | IC50 [1] | IC50 [2] |
| --- | --- | --- |
| CCc1c(N2CCN(C(=O)c3ncnc(C)c3O)CC2)c(=O)n2nc(-c3ccc4c(c3)n(C)c(=O)n4C)nc2n1CC(=O)Nc1ccc(C(F)(F)F)cc1Cl [WO2025049746, Example 175] | 30 nM | 52 nM |
| CCc1c(N2CCN(C(=O)c3ncnc(C)c3O)CC2)c(=O)n2nc(-c3ccn4nccc4c3)nc2n1CC(=O)Nc1ccc(C(F)(F)F)cc1Cl [WO2025049746, Example 176] | 76 nM | 95 nM |
| CCc1c(N2CCN(C(=O)c3ncnc(C)c3O)CC2)c(=O)n2nc(-c3ccc4cn(C)nc4c3)nc2n1CC(=O)Nc1ccc(C(F)(F)F)cc1Cl [WO2025049746, Example 177] | 30 nM | 31 nM |
| CCc1c(N2CCN(C(=O)c3ncnc(C)c3O)CC2)c(=O)n2nc(-c3ccc4c(c3)C(F)(F)CC4)nc2n1CC(=O)Nc1ccc(C(F)(F)F)cc1Cl [WO2025049746, Example 178] | 39 nM | 42 nM |
| CCc1c(N2CCN(C(=O)c3ncnc(C)c3O)CC2)c(=O)n2nc(-c3ccc4c(c3)OC(F)(F)O4)nc2n1CC(=O)Nc1ccc(C(F)(F)F)cc1Cl [WO2025049746, Example 179] | 59 nM | 77 nM |
| CCc1c(N2CCN(C(=O)c3ncnc(C)c3O)CC2)c(=O)n2nc(-c3ccc4c(c3F)CCO4)nc2n1CC(=O)Nc1ccc(C(F)(F)F)cc1Cl [WO2025049746, Example 180] | 45 nM | 53 nM |
| CCc1c(N2CCN(C(=O)c3ncnc(C)c3O)CC2)c(=O)n2nc(-c3ccc4c(c3)C[C@H](OC)C4)nc2n1CC(=O)Nc1ccc(C(F)(F)F)cc1Cl [WO2025049746, Example 181] | 33 nM | 38 nM |
| CCc1c(N2CCN(C(=O)c3ncnc(C)c3O)CC2)c(=O)n2nc(-c3ccc4c(c3)C[C@@H](OC)C4)nc2n1CC(=O)Nc1ccc(C(F)(F)F)cc1Cl [WO2025049746, Example 182] | 31 nM | 37 nM |
| CCc1c(N2CCN(C(=O)c3ncnc(C)c3O)CC2)c(=O)n2nc(-c3cc4n(n3)CCC4)nc2n1CC(=O)Nc1ccc(C(F)(F)F)cc1Cl [WO2025049746, Example 183] | 46 nM | 52 nM |
| CCc1c(N2CCN(C(=O)c3ncnc(C)c3O)CC2)c(=O)n2nc(-c3cc4n(n3)CCCC4)nc2n1CC(=O)Nc1ccc(C(F)(F)F)cc1Cl [WO2025049746, Example 184] | 58 nM | 68 nM |
| CCc1c(N2CCN(C(=O)c3ncnc(C)c3O)CC2)c(=O)n2nc(-c3ccc4c(c3)CN(C)C4=O)nc2n1CC(=O)Nc1ccc(C(F)(F)F)cc1Cl [WO2025049746, Example 185] | 26 nM | 32 nM |
| CCc1c(N2CCN(C(=O)c3ncnc(C)c3O)CC2)c(=O)n2nc(-c3ccc4c(c3)C(=O)N(C)C4)nc2n1CC(=O)Nc1ccc(C(F)(F)F)cc1Cl [WO2025049746, Example 186] | 45 nM | 52 nM |
| CCc1c(N2CCN(C(=O)c3ncnc(C)c3O)CC2)c(=O)n2nc(-c3ccc4c(c3)CCC4(F)F)nc2n1CC(=O)Nc1ccc(C(F)(F)F)cc1Cl [WO2025049746, Example 187] | 75 nM | 170 nM |
| CCc1c(N2CCN(C(=O)c3ncnc(C)c3O)CC2)c(=O)n2nc(-c3ccc4c(c3)C(=O)NC4)nc2n1CC(=O)Nc1ccc(C(F)(F)F)cc1Cl [WO2025049746, Example 188] | 30 nM | 52 nM |
| CCc1c(N2CCN(C(=O)c3ncnc(C)c3O)CC2)c(=O)n2nc(-c3ccc4c(c3)[C@H](C)OC4)nc2n1CC(=O)Nc1ccc(C(F)(F)F)cc1Cl [WO2025049746, Example 189] | 29 nM | 34 nM |
| CCc1c(N2CCN(C(=O)c3ncnc(C)c3O)CC2)c(=O)n2nc(-c3ccc4c(c3)[C@@H](C)OC4)nc2n1CC(=O)Nc1ccc(C(F)(F)F)cc1Cl [WO2025049746, Example 190] | 30 nM | 38 nM |
| CCc1c(N2CCN(C(=O)c3ncnc(C)c3O)CC2)c(=O)n2nc(-c3ccc4c(c3)CO[C@@H]4C)nc2n1CC(=O)Nc1ccc(C(F)(F)F)cc1Cl [WO2025049746, Example 191] | 44 nM | 53 nM |
| CCc1c(N2CCN(C(=O)c3ncnc(C)c3O)CC2)c(=O)n2nc(-c3ccc4c(c3)CO[C@H]4C)nc2n1CC(=O)Nc1ccc(C(F)(F)F)cc1Cl [WO2025049746, Example 192] | 31 nM | 40 nM |
| CCc1c(N2CCN(C(=O)c3ncnc(C)c3O)CC2)c(=O)n2nc(-c3ccc4c(c3)C(C)(C)CO4)nc2n1CC(=O)Nc1ccc(C(F)(F)F)cc1Cl [WO2025049746, Example 193] | 53 nM | 73 nM |
| CCc1c(N2CCN(C(=O)c3ncnc(C)c3O)CC2)c(=O)n2nc(-c3ccc4c(c3)CC(C)(C)O4)nc2n1CC(=O)Nc1ccc(C(F)(F)F)cc1Cl [WO2025049746, Example 194] | 67 nM | 81 nM |
| CCc1c(N2CCN(C(=O)c3ncnc(C)c3O)CC2)c(=O)n2nc(-c3ccc4c(c3)CCOC4(C)C)nc2n1CC(=O)Nc1ccc(C(F)(F)F)cc1Cl [WO2025049746, Example 195] | 39 nM | 45 nM |

| Structure (SMILES) | IC50 [1] | IC50 [2] |
| --- | --- | --- |
| CCc1c(N2CCN(C(=O)c3ncnc(C)c3O)CC2)c(=O)n2nc(-c3ccc4c(c3)CN(C)C4)nc2n1CC(=O)Nc1ccc(C(F)(F)F)cc1Cl [WO2025049746, Example 197] | 52 nM | 50 nM |
| CCc1c(N2CCN(C(=O)c3ncnc(C)c3O)CC2)c(=O)n2nc(-c3ccc4c(c3)N(C)C(=O)CO4)nc2n1CC(=O)Nc1ccc(C(F)(F)F)cc1Cl [WO2025049746, Example 198] | 33 nM | 48 nM |
| CCc1c(N2CCN(C(=O)c3ncnc(C)c3O)CC2)c(=O)n2nc(-c3ccc4c(c3)CCN4C)nc2n1CC(=O)Nc1ccc(C(F)(F)F)cc1Cl [WO2025049746, Example 199] | 32 nM | 40 nM |
| CCc1c(N2CCN(C(=O)c3ncnc(C)c3O)CC2)c(=O)n2nc(-c3cc4c(cc3F)COC4)nc2n1CC(=O)Nc1ccc(C(F)(F)F)cc1Cl [WO2025049746, Example 201] | 21 nM | 25 nM |
| CCc1c(N2CCN(C(=O)c3ncnc(C)c3O)CC2)c(=O)n2nc(-c3cc(F)c4c(c3)COC4)nc2n1CC(=O)Nc1ccc(C(F)(F)F)cc1Cl [WO2025049746, Example 202] | 32 nM | 40 nM |
| CCc1c(N2CCN(C(=O)c3ncnc(C)c3O)CC2)c(=O)n2nc(-c3cc4c(cc3C)COC4)nc2n1CC(=O)Nc1ccc(C(F)(F)F)cc1Cl [WO2025049746, Example 203] | 56 nM | 79 nM |
| CCc1c(N2CCN(C(=O)c3ncnc(C)c3O)CC2)c(=O)n2nc(N3CCC(=C(F)F)CC3)nc2n1CC(=O)Nc1ccc(C(F)(F)F)cc1Cl [WO2025049746, Example 205] | 27 nM | 36 nM |
| CCc1c(N2CCN(C(=O)c3ncnc(C)c3O)CC2)c(=O)n2nc(-c3cc(C)c4c(c3)COC4)nc2n1CC(=O)Nc1ccc(C(F)(F)F)cc1Cl [WO2025049746, Example 206] | 28 nM | 33 nM |
| CCc1c(N2CCN(C(=O)c3ncnc(C)c3O)CC2)c(=O)n2nc(-c3ccc4c(c3)CC[C@@H]4OC)nc2n1CC(=O)Nc1ccc(C(F)(F)F)cc1Cl [WO2025049746, Example 207] | 33 nM | 39 nM |
| CCc1c(N2CCN(C(=O)c3ncnc(C)c3O)CC2)c(=O)n2nc(-c3ccc4c(c3)CC[C@H]4OC)nc2n1CC(=O)Nc1ccc(C(F)(F)F)cc1Cl [WO2025049746, Example 208] | 34 nM | 39 nM |
| CCc1c(N2CCN(C(=O)c3ncnc(C)c3O)CC2)c(=O)n2nc(-c3ccc4c(c3)COC43CN(C)C3)nc2n1CC(=O)Nc1ccc(C(F)(F)F)cc1Cl [WO2025049746, Example 209] | 45 nM | 56 nM |
| CCc1c(N2CCN(C(=O)c3ncnc(C)c3O)CC2)c(=O)n2nc(-c3nc4c(s3)CCC4)nc2n1CC(=O)Nc1ccc(C(F)(F)F)cc1Cl [WO2025049746, Example 210] | 31 nM | 38 nM |
| CCc1c(N2CCN(C(=O)c3ncnc(C)c3O)CC2)c(=O)n2nc(-c3cc4c(cc3F)C(C)(C)OC4)nc2n1CC(=O)Nc1ccc(C(F)(F)F)cc1Cl [WO2025049746, Example 211] | 32 nM | 36 nM |
| CCc1c(N2CCN(C(=O)c3ncnc(C)c3O)CC2)c(=O)n2nc(-c3cc(F)c4c(c3)COC4(C)C)nc2n1CC(=O)Nc1ccc(C(F)(F)F)cc1Cl [WO2025049746, Example 212] | 73 nM | 86 nM |
| CCc1c(N2CCN(C(=O)c3ncnc(C)c3O)CC2)c(=O)n2nc(-c3cc4c(cc3C)C(C)(C)OC4)nc2n1CC(=O)Nc1ccc(C(F)(F)F)cc1Cl [WO2025049746, Example 213] | 58 nM | 85 nM |
| CCc1c(N2CCN(C(=O)c3ncnc(C)c3O)CC2)c(=O)n2nc(-c3ccc4c(c3C)COC4(C)C)nc2n1CC(=O)Nc1ccc(C(F)(F)F)cc1Cl [WO2025049746, Example 214] | 38 nM | 45 nM |
| CCc1c(N2CCN(C(=O)c3ncnc(C)c3O)CC2)c(=O)n2nc(-c3ccc4c(c3)COC43CCC3)nc2n1CC(=O)Nc1ccc(C(F)(F)F)cc1Cl [WO2025049746, Example 215] | 46 nM | 48 nM |
| CCc1c(N2CCN(C(=O)c3ncnc(C)c3O)CC2)c(=O)n2nc(-c3ccc4c(c3F)COC4(C)C)nc2n1CC(=O)Nc1ccc(C(F)(F)F)cc1Cl [WO2025049746, Example 216] | 37 nM | 37 nM |
| CCc1c(N2CCN(C(=O)c3ncnc(C)c3O)CC2)c(=O)n2nc(-c3ccc4c(c3F)CCOC4)nc2n1CC(=O)Nc1ccc(C(F)(F)F)cc1Cl [WO2025049746, Example 217] | 32 nM | 31 nM |
| CCc1c(N2CCN(C(=O)c3ncnc(C)c3O)CC2)c(=O)n2nc(-c3ccn4c(C)ncc4c3)nc2n1CC(=O)Nc1ccc(C(F)(F)F)cc1Cl [WO2025049746, Example 218] | 34 nM | 44 nM |
| CCc1c(N2CCN(C(=O)c3ncnc(C)c3O)CC2)c(=O)n2nc(-c3ccn4cncc4c3)nc2n1CC(=O)Nc1ccc(C(F)(F)F)cc1Cl [WO2025049746, Example 219] | 19 nM | 19 nM |
